This note sets out measurements from patent US12661355B2, “Compounds and methods for inducing UCP1 expression” (The Regents of the University of California, priority 2020, dated 2026).

One experiment concerns UCP1. Description: Gene expression in immortalized human brown adipocytes. Type of experiment: cell-based. Conditions: 10 μM for 4 days. As to the method: Human immortalized brown and white preadipocytes were obtained from Dr. Yu-Hua Tseng (Joslin Diabetes Center, Harvard Medical School, USA). The generation of the two cell lines from human neck adipose tissue biopsies and immortalization was performed as previously described but from a different donor. Cells were cultured in high glucose DMEM supplemented with 10% FBS and antibiotics. Two days after reaching confluence, cells were treated with 30 μM biotin, 500 nM insulin, 17 μM pantothenate, 100 nM dexamethasone, 2 nM 3,3′,5-Triiodo-L-thyronine, 500 μM IBMX, 30 μM indomethacin and 1 μM rosiglitazone, for 12 days. Afterwards, cells were treated with 30 μM biotin, 500 nM insulin, 17 μM pantothenate and 2 nM 3,3′,5-Triiodo-L-thyronine (Maintenance media) for 2 days with end-point assays performed on day 18, and for 5 days with end-point assays performed on day 21, for the brown and white adipocytes cells, respectively.
Mouse RNA levels were measured by qPCR according to known methods. Data were normalized to B2m and Tbp reference genes. Human RNA was extracted using an RNA Mini Plus kit (Zymo) and gene expression determined by Taqman assay. The 1-step qPCR was run on a QuantStudio 12K Flex Real Time PCR System (ThermoFisher) using the following protocol: 50° C. for 5 minutes, 95° C. for 20 seconds, 40 cycles of 95° C. for 15 seconds and 60° C. for 60 seconds. […]

Experiment [1] addresses T1, PKA subunits (C-α and RII-β) (Mus musculus, UniProt P05132+P31324).
T1 construct: endogenous in cells; host or cells: immortalized mouse brown adipocytes
Description: CETSA in brown adipocytes, PKA subunits. The class given is binding. Conditions: 10 μM for 8 h. As to the method:
CETSA assays were performed according to known methods. Briefly, differentiated brown adipocytes (one 10 cm dish per treatment) were treated with vehicle or compounds, trypsinized, counted, and re-suspended in approximately 450 μl PBS containing protease inhibitors (volumes were adjusted to have the same number of cells in each treatment). For each sample, 18 μl was distributed into each of 7 PCR tubes. Samples were heated using a thermocycler with a temperature gradient (iCycler, Biorad) for 3 min, followed by 3 min at room temperature, and then snap-frozen in liquid N2. After two freeze-thaw cycles, samples were centrifuged at 20,000 g for 15 min at 4° C., and the supernatants were transferred to another set of tubes. Proteins were analyzed by immunoblotting.
The PKA tetramer consists of two catalytic and two regulatory subunits. In the mouse, these are catalytic subunits C-α and C-β, and regulatory subunits RI and RII, each with α and β isoforms (RI-α, RI-β, RII-α, RII-β). […]
The potential interaction of Z160 with PKA subunits and AKAPs was assessed first by identifying which PKA subunits and AKAP isoforms are normally present in BAT. […] To perform the CETSA assays, cultured brown adipocytes were incubated with 10 μM Z160 for 8 h, after which the thermal shift was analyzed by Western blot.

The next experiment has as its target T2, AKAP1 (Rattus norvegicus, UniProt O88884).
T2 construct: DARTS assay in H9c2 cell extracts treated with vehicle or 20 μM Z160 for 1 h; endogenous in cells; host or cells: rat H9c2 cells
As to the kind of experiment: DARTS in H9c2 cell extracts, AKAP1. Type of experiment: binding. Conditions: 20 μM, 1 h. The procedure:
Rat H9c2 cells were grown in DMEM supplemented with 10% FBS, 25 mM glucose, 1 mM pyruvate, and 2 mM glutamine Neonatal rat ventricular myocytes (NRVM) were isolated and cultured as previously described. Briefly, 2-4 day old rats were sacrificed and myocytes and fibroblasts were isolated and separated using a Percoll density gradient. Following isolation, NRVMs were plated on gelatin-coated plates in DMEM containing 10% FBS, 25 mM glucose, 1 mM pyruvate, and 2 mM glutamine The next day, FBS was replaced by 1× insulin-transferrin-selenium supplement and the cells were treated with vehicle or 10 μM Z160 for 2 days, with or without 60 μM isoproterenol or 50 μM phenylephrine.
[…] assays were performed according to known methods. Briefly, BAT or cells within a 10 cm dish were lysed with 600 μl M-PER buffer containing protease and phosphatase inhibitors. Debris was pelleted by centrifugation at 18,000 g for 10 min at 4° C., and the lysates were harvested and supplemented with TNC buffer (50 mM Tris-HCl, 50 mM NaCl, 10 mM CaCl2). The lysates were split into two tubes and treated with either vehicle or 20 μM Z160 for 1 h at room temperature. For experiment with BAT, 100 μg of lysate was incubated with different Z160 concentrations. […]

The structures appear in SMILES notation.

T2 sequence (O88884 30-854): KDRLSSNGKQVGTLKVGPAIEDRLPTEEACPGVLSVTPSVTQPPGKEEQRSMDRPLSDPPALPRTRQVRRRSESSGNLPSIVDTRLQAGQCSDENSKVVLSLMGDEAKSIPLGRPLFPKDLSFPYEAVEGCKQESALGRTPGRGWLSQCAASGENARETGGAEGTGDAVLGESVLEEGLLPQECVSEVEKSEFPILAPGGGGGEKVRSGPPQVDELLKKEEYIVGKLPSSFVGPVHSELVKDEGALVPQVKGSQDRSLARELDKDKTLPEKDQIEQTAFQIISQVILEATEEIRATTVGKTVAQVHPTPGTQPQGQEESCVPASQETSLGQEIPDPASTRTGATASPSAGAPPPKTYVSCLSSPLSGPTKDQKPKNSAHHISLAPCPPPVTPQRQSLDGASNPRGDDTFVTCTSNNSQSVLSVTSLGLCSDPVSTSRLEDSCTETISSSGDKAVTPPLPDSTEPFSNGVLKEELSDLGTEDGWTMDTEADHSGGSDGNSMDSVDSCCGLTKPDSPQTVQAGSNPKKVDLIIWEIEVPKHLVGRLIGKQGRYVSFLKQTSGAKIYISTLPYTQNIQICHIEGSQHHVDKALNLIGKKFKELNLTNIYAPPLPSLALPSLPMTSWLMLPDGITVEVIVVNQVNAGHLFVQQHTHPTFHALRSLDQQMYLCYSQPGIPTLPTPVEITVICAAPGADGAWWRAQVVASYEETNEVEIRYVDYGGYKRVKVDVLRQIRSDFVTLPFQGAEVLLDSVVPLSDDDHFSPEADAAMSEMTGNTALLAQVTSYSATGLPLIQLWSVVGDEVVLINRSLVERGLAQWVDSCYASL

With `COc1ccc(NC(=O)CSc2nc3ccccc3c(=O)[nH]2)c(OC)c1` [Z160], in the experiment on UCP1, the CIDEA expression result is reported as “increased expression” and the UCP1 expression is listed as roughly 7 fold. Further, the “denaturation (thermal shift) of PKA subunits C-α and RII-β” value in experiment [1] is given as “did not show differences in denaturation”. For the same molecule, the “pronase susceptibility of AKAP1” value at AKAP1 is given as “not”.
